# Data from article PMC11288129, “Diversely evolved xibalbin variants from remipede venom inhibit potassium channels and activate PKA-II and Erk1/2 signaling” (BMC Biology, 2024).
# Positions of bridges follow the written chain, without caps; N, C: chain ends. No end group written: not given here.
# System: rat DRG sensory neurons
# Test: Number of DRG neurons (cytotoxicity, high content imaging)
# Format: cell-based
# Details: also RAW264.7 and HMEC
# Procedure: We initially determined the cytotoxic effects of xibalbins on primary sensory neurons from adult male rats cultured in vitro [2]. […] We exposed overnight cultures of dissociated rat dorsal root ganglions (DRGs) to xibalbins for 5 and 30 min. Subsequently, all cells were fixed and immunocytochemically stained for the neuronal marker UCHL1 to identify neurons. The entire culture was digitally scanned using high content imaging (HCI) microscopy, and cell numbers, UCHL1 staining per cell, and cell size was analyzed. No loss of neurons was induced by either of the tested xibalbins, even at the highest concentration of 0.8 µg/µL (Additional File 3: Figure S2). […] We further investigated the potential toxicity of xibalbins in monocyte/macrophage-like cells (RAW264.7) and human microvascular endothelial cells (HMEC); see Additional File 5: Figure S4 The viability of RAW264.7 cells was detected using a formazan-based assay, while the proliferation of HMECs was assessed by measuring the number of crystal violet-stained cells.
# Male Sprague Dawley rats (250–400 g, 8–16 weeks old) were obtained from Envigo. […]
# Stained cells were scanned with a CX7-LZR (Thermo Fisher Scientific) HCI system. Images were acquired with a 10 × objective and analyzed using the cellomics software package (Thermo Fisher Scientific). […] The resulting objects were quantified for average object intensity in all other color channels. […]
row,Sequence,cytolytic or cytotoxic activity
1,"KRSCIRRFGRCDHRPNDCCYNSSCRCNLWGSNCRCQRMGLFQKWGK (disulfide 4-19, 11-24, 18-35, 26-33) [xib13]",do not show overt cytolytic or cytotoxic activity
2,"RLFCIRHHKYCGHRPKRCCSGLFCRCNTFGTNCRCQSKGALGKLI (disulfide 4-19, 11-24, 18-35, 26-33) [xib1]",do not show overt cytolytic or cytotoxic activity
